Patent US12139492B2 (Endotarget Inc., priority 2021, dated 2024)

Key:
BTK = BTK (Homo sapiens, UniProt Q06187); experiment: Degradation of BTK protein in Namalwa cells (Western blot; DC50, Dmax); settings: for DC50: BTK degradation, cell line not given
Mino cells = experiment: Antiproliferative effect, MTS cell viability assay, Mino cells; format: cell-based; settings: Homo sapiens, MINO, Mino mantle cell lymphoma cells; read-out: IC50 (anti-proliferation) Mino cells
Method in brief: (§1)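 Mino and JeKo-1 mantle B-cell lymphoma lines were exposed to compound at 0, 0.001, 0.01, 0.1, 1 and 10 μM for 72 h. Viability was read by MTS reduction to formazan, measured as absorbance at 490 nm.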

JeKo-1 cells = experiment: Antiproliferative effect, MTS cell viability assay, JeKo-1 cells; format: cell-based; settings: Homo sapiens; JeKo-1 mantle cell lymphoma cells; read-out: IC50 (anti-proliferation) JeKO-1 cells
Method in brief: as §1

Chain of BTK (Q06187 whole entry): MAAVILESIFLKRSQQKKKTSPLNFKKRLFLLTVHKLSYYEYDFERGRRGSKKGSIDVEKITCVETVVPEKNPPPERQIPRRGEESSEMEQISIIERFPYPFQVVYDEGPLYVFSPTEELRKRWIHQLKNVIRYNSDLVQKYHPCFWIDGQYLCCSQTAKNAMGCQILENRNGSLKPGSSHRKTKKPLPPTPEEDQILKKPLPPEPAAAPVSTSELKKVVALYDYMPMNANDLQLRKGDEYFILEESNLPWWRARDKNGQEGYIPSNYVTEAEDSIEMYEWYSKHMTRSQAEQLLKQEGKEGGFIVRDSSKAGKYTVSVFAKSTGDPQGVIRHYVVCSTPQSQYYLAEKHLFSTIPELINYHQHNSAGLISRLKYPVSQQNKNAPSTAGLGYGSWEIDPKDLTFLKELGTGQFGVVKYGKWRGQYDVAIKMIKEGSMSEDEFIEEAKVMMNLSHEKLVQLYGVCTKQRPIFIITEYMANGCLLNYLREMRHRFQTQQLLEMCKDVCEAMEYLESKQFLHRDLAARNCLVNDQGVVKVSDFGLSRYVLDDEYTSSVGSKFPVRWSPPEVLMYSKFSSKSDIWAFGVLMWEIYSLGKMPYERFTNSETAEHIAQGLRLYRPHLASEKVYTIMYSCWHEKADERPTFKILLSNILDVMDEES

Dmax (BTK)	DC50 (BTK)	Compound	IC50 (Mino cells)	IC50 (JeKo-1 cells)
> 90%	10 to 50 nM	Nc1ncnc2c1c(-c1ccc(Oc3ccccc3)cc1)nn2C1CCN(C2CCN(C(=O)N3CCN(CC4CCN(c5ccc6c(c5)C(=O)N(C5CCC(=O)NC5=O)C6=O)CC4)CC3)CC2)CC1 (stereo not drawn) [Compound 241, 5-(4-((4-(4-(4-amino-3-(4-phenoxyphenyl)-1H-pyrazolo[3,4-d]pyrimidin-1-yl)-[1,4′-bipiperidine]-1′-carbonyl)piperazin-1-yl)methyl)piperidin-1-yl)-2-(2,6-dioxopiperidin-3-yl)isoindoline-1,3-dione]	1000 to 10000 nM	1000 to 10000 nM
> 90%	< 10 nM	Nc1ncnc2c1c(-c1ccc(Oc3ccccc3)cc1)nn2C1CCN(C2CCN(C(=O)N3CCN(CC4CCN(c5ccc6c(c5)CN(C5CCC(=O)NC5=O)C6=O)CC4)CC3)CC2)CC1 (stereo not drawn) [Compound 242, 3-(5-(4-((4-(4-(4-amino-3-(4-phenoxyphenyl)-1H-pyrazolo[3,4-d]pyrimidin-1-yl)-[1,4′-bipiperidine]-1′-carbonyl)piperazin-1-yl)methyl)piperidin-1-yl)-1-oxoisoindolin-2-yl)piperidine-2,6-dione]	< 1000 nM	1000 to 10000 nM
> 90%	< 10 nM	Nc1ncnc2c1c(-c1ccc(Oc3ccccc3)cc1)nn2C1CCN(C2CCN(C(=O)N3CCC(CN4CCC(c5ccc6c(c5)C(=O)N(C5CCC(=O)NC5=O)C6=O)CC4)CC3)CC2)CC1 (stereo not drawn) [Compound 243, 5-(1-((1-(4-(4-amino-3-(4-phenoxyphenyl)-1H-pyrazolo[3,4-d]pyrimidin-1-yl)-[1,4′-bipiperidine]-1′-carbonyl)piperidin-4-yl)methyl)piperidin-4-yl)-2-(2,6-dioxopiperidin-3-yl)isoindoline-1,3-dione]	1000 to 10000 nM	1000 to 10000 nM
> 90%	< 10 nM	Nc1ncnc2c1c(-c1ccc(Oc3ccccc3)cc1)nn2C1CCN(C2CCN(C(=O)N3CCC(CN4CCC(c5ccc6c(c5)CN(C5CCC(=O)NC5=O)C6=O)CC4)CC3)CC2)CC1 (stereo not drawn) [Compound 244, 3-(5-(1-((1-(4-(4-amino-3-(4-phenoxyphenyl)-1H-pyrazolo[3,4-d]pyrimidin-1-yl)-[1,4′-bipiperidine]-1′-carbonyl)piperidin-4-yl)methyl)piperidin-4-yl)-1-oxoisoindolin-2-yl)piperidine-2,6-dione]	1000 to 10000 nM	1000 to 10000 nM
> 75%	10 to 50 nM	Nc1ncnc2c1c(-c1ccc(Oc3ccccc3)cc1)nn2C1CCN(C2CCN(C(=O)N3CCN(CCN4CCN(c5ccc6c(c5)C(=O)N(C5CCC(=O)NC5=O)C6=O)CC4)CC3)CC2)CC1 (stereo not drawn) [Compound 245]	1000 to 10000 nM	1000 to 10000 nM
> 75%	10 to 50 nM	Nc1ncnc2c1c(-c1ccc(Oc3ccccc3)cc1)nn2C1CCN(C2CCN(C(=O)N3CCN(CCN4CCN(c5ccc6c(c5)CN(C5CCC(=O)NC5=O)C6=O)CC4)CC3)CC2)CC1 (stereo not drawn) [Compound 246, 3-(5-(4-(2-(4-(4-(4-amino-3-(4-phenoxyphenyl)-1H-pyrazolo[3,4-d]pyrimidin-1-yl)-[1,4′-bipiperidine]-1′-carbonyl)piperazin-1-yl)ethyl)piperazin-1-yl)-1-oxoisoindolin-2-yl)piperidine-2,6-dione]	1000 to 10000 nM	1000 to 10000 nM
> 75%	10 to 50 nM	Nc1ncnc2c1c(-c1ccc(Oc3ccccc3)cc1)nn2C1CCN(C2CCN(C(=O)N3CCN(CCC4CCN(c5ccc6c(c5)C(=O)N(C5CCC(=O)NC5=O)C6=O)CC4)CC3)CC2)CC1 (stereo not drawn) [Compound 247, 5-(4-(2-(4-(4-(4-amino-3-(4-phenoxyphenyl)-1H-pyrazolo[3,4-d]pyrimidin-1-yl)-[1,4′-bipiperidine]-1′-carbonyl)piperazin-1-yl)ethyl)piperidin-1-yl)-2-(2,6-dioxopiperidin-3-yl)isoindoline-1,3-dione]	1000 to 10000 nM	1000 to 10000 nM
> 75%	10 to 50 nM	Nc1ncnc2c1c(-c1ccc(Oc3ccccc3)cc1)nn2C1CCN(C2CCN(C(=O)N3CCN(CCC4CCN(c5ccc6c(c5)CN(C5CCC(=O)NC5=O)C6=O)CC4)CC3)CC2)CC1 (stereo not drawn) [Compound 248]	< 1000 nM	1000 to 10000 nM
> 75%	10 to 50 nM	Nc1ncnc2c1c(-c1ccc(Oc3ccccc3)cc1)nn2C1CCN(C2CCN(C(=O)N3CCN(CCN4CCC(c5ccc6c(c5)C(=O)N(C5CCC(=O)NC5=O)C6=O)CC4)CC3)CC2)CC1 (stereo not drawn) [Compound 249, 5-(1-(2-(4-(4-(4-amino-3-(4-phenoxyphenyl)-1H-pyrazol[3,4-d]pyrimidin-1-yl)-[1,4′-bipiperidine]-1′-carbonyl)piperazin-1-yl)ethyl)piperidin-4-yl)-2-(2,6-dioxopiperidin-3-yl)isoindoline-1,3-dione]	< 1000 nM	1000 to 10000 nM
> 90%	10 to 50 nM	Nc1ncnc2c1c(-c1ccc(Oc3ccccc3)cc1)nn2C1CCN(C2CCN(C(=O)N3CCN(CCN4CCC(c5ccc6c(c5)CN(C5CCC(=O)NC5=O)C6=O)CC4)CC3)CC2)CC1 (stereo not drawn) [Compound 250]	1000 to 10000 nM	1000 to 10000 nM
> 90%	10 to 50 nM	Nc1ncnc2c1c(-c1ccc(Oc3ccccc3)cc1)nn2C1CCN(C2CCN(C(=O)N3CCC(CCN4CCN(c5ccc6c(c5)C(=O)N(C5CCC(=O)NC5=O)C6=O)CC4)CC3)CC2)CC1 (stereo not drawn) [Compound 251, 5-(4-(2-(1-(4-(4-amino-3-(4-phenoxyphenyl)-1H-pyrazolo[3,4-d]pyrimidin-1-yl)-[1,4′-bipiperidine]-1′-carbonyl)piperidin-4-yl)ethyl)piperazin-1-yl)-2-(2,6-dioxopiperidin-3-yl)isoindoline-1,3-dione]	< 1000 nM	1000 to 10000 nM
> 90%	10 to 50 nM	Nc1ncnc2c1c(-c1ccc(Oc3ccccc3)cc1)nn2C1CCN(C2CCN(C(=O)N3CCC(CCN4CCN(c5ccc6c(c5)CN(C5CCC(=O)NC5=O)C6=O)CC4)CC3)CC2)CC1 (stereo not drawn) [Compound 252, 3-(5-(4-(2-(1-(4-(4-amino-3-(4-phenoxyphenyl)-1H-pyrazolo[3,4-d]pyrimidin-1-yl)-[1,4′-bipiperidine]-1′-carbonyl)piperidin-4-yl)ethyl)piperazin-1-yl)-1-oxoisoindolin-2-yl)piperidine-2,6-dione]	< 1000 nM	< 1000 nM
> 90%	10 to 50 nM	Nc1ncnc2c1c(-c1ccc(Oc3ccccc3)cc1)nn2C1CCN(C2CCN(C(=O)N3CCC(CCN4CCC(c5ccc6c(c5)C(=O)N(C5CCC(=O)NC5=O)C6=O)CC4)CC3)CC2)CC1 (stereo not drawn) [Compound 253, 5-(1-(2-(1-(4-(4-amino-3-(4-phenoxyphenyl)-1H-pyrazolo[3,4-d]pyrimidin-1-yl)-[1,4′-bipiperidine]-1′-carbonyl)piperidin-4-yl)ethyl)piperidin-4-yl)-2-(2,6-dioxopiperidin-3-yl)isoindoline-1,3-dione]	1000 to 10000 nM	1000 to 10000 nM
> 90%	< 10 nM	Nc1ncnc2c1c(-c1ccc(Oc3ccccc3)cc1)nn2C1CCN(C2CCN(C(=O)N3CCC(CCN4CCC(c5ccc6c(c5)CN(C5CCC(=O)NC5=O)C6=O)CC4)CC3)CC2)CC1 (stereo not drawn) [Compound 254, 3-(5-(1-(2-(1-(4-(4-amino-3-(4-phenoxyphenyl)-1H-pyrazolo[3,4-d]pyrimidin-1-yl)-[1,4′-bipiperidine]-1′-carbonyl)piperidin-4-yl)ethyl)piperidin-4-yl)-1-oxoisoindolin-2-yl)piperidine-2,6-dione]	1000 to 10000 nM	1000 to 10000 nM
> 90%	10 to 50 nM	Nc1ncnc2c1c(-c1ccc(Oc3ccccc3)cc1)nn2C1CCN(C2CCN(C(=O)N3CCC(CCC4CCN(c5ccc6c(c5)C(=O)N(C5CCC(=O)NC5=O)C6=O)CC4)CC3)CC2)CC1 (stereo not drawn) [Compound 255, 5-(4-(2-(1-(4-(4-amino-3-(4-phenoxyphenyl)-1H-pyrazolo[3,4-d]pyrimidin-1-yl)-[1,4′-bipiperidine]-1′-carbonyl)piperidin-4-yl)ethyl)piperidin-1-yl)-2-(2,6-dioxopiperidin-3-yl)isoindoline-1,3-dione]	< 1000 nM	1000 to 10000 nM
> 90%	< 10 nM	Nc1ncnc2c1c(-c1ccc(Oc3ccccc3)cc1)nn2C1CCN(C2CCN(C(=O)N3CCC(CCC4CCN(c5ccc6c(c5)CN(C5CCC(=O)NC5=O)C6=O)CC4)CC3)CC2)CC1 (stereo not drawn) [Compound 256, 3-(5-(4-(2-(1-(4-(4-amino-3-(4-phenoxyphenyl)-1H-pyrazolo[3,4-d]pyrimidin-1-yl)-[1,4′-bipiperidine]-1′-carbonyl)piperidin-4-yl)ethyl)piperidin-1-yl)-1-oxoisoindolin-2-yl)piperidine-2,6-dione]	< 1000 nM	1000 to 10000 nM
> 75%	> 50 nM	Nc1ncnc2c1c(-c1ccc(Oc3ccccc3)cc1)nn2C1CCN(C2CCN(C(=O)N3CCN(CCCN4CCN(c5ccc6c(c5)C(=O)N(C5CCC(=O)NC5=O)C6=O)CC4)CC3)CC2)CC1 (stereo not drawn) [Compound 257, 5-(4-(3-(4-(4-(4-amino-3-(4-phenoxyphenyl)-1H-pyrazolo[3,4-d]pyrimidin-1-yl)-[1,4′-bipiperidine]-1′-carbonyl)piperazin-1-yl)propyl)piperazin-1-yl)-2-(2,6-dioxopiperidin-3-yl)isoindoline-1,3-dione]	> 10000 nM	> 10000 nM
> 75%	10 to 50 nM	Nc1ncnc2c1c(-c1ccc(Oc3ccccc3)cc1)nn2C1CCN(C2CCN(C(=O)N3CCN(CCCN4CCN(c5ccc6c(c5)CN(C5CCC(=O)NC5=O)C6=O)CC4)CC3)CC2)CC1 (stereo not drawn) [Compound 258, 3-(5-(4-(3-(4-(4-(4-amino-3-(4-phenoxyphenyl)-1H-pyrazolo[3,4-d]pyrimidin-1-yl)-[1,4′-bipiperidine]-1′-carbonyl)piperazin-1-yl)propyl)piperazin-1-yl)-1-oxoisoindolin-2-yl)piperidine-2,6-dione]	1000 to 10000 nM	> 10000 nM
